Reference: patent US9321717B2, “Process for rapid identification and preparation of crystalline forms” (Allergan, Inc., priority 2011, dated 2016)
“Also recorded” adds a separate entry of the source.

What was measured:
[1] = Form risk assessment (FRA) crystallization workflow with XRPD form identification; assay type: physicochemical; conditions: for FRA_EV: forms from evaporation; for FRA_TC: forms from thermocycled slurrying; for Forms Found by FRA: model compounds, crystalline, used as received, * = low energy form
Description: However, certain basic elements of the polymorph screening experiments are incorporated, such as solubility estimation, solvent-mediated form transformation, as well as super saturation adjustment by cooling, antisolvent addition, and evaporation, etc. The following procedure outlines the logical steps of performing an FRA experiment: • 1. Determine the physicochemical properties of the starting material (compound as received) • 2. Estimate the solubilities of the compound in twenty-four solvents with diverse solvent properties. • 3. Design approximately sixteen crystallization experiments with appropriate solvent systems based on the results of the solubility estimations. • 4. Prepare the crystallization samples and examine their solubilities in the sixteen solvent systems at elevated temperature. • 5. Conduct the crystallization experiment according to the designed workflow. • 6. Characterize and analyze the materials isolated from the crystallization experiments.
The solubility of the API is visually estimated by the “dynamic method” in each of the twenty-four solvents. This method is used to quickly bin the solvents into different categories, such as good solvents, poor solvents, and intermediates. The following describes the general procedure of the solubility estimation: • 1. Place weighed amounts of drug in clear glass vials to which incremental volumes (20-500 μL) of solvent are added until the solution turns clear. • 2. Apply brief vortexing after each solvent addition. • 3. Calculate the approximate visual solubility of the drug in a solvent by recording the amount of solvent required to completely dissolve the known weight of drug. The preferred unit of solubility is mg/mL.
The suspensions of the drug substance in a variety of solvent systems will be subjected to temperature-cycled slurrying, which is the primary crystallization method. Sixteen sample slurries for thermo-cycled experiments should be prepared with caution to avoid complete dissolution of the solid at elevated temperatures. For slurry with a single solvent system, the initial composition should have approximately 5-10 times higher concentration than the estimated solubility value at ambient temperature. For slurry in a solvent mixture, a suspension of the compound in the antisolvent should first be prepared and followed by the introduction of the solvent to adjust the solubility. The final antisolvent to solvent volume ratio is typically between 3 and 10. Record the amount of compound initially added and the volumes of added solvent aliquots.
Appendix 1 summarizes the typical temperature programs for each experiment. Usually three heat-cool-heat temperature cycles are used. The initial fast thermocycling runs help preliminarily assessing the dissolution behavior of the samples. The slow thermocycling runs focus on generating crystals and increasing the crystallinity and form purity.
If the sample remains a clear solution after the initial thermocycling, the solution is cooled to induce super saturation. During cooling, the original solution may become supersaturated and further reach the metastable limit when spontaneous crystallization starts. Usually the final temperature is 5° C. and the cooling rate is 0.1° C. per minute to facilitate crystal growth.
If the sample is still a clear solution at 5° C., the sample vial will be transferred into a −20° C. freezer for at least 2-3 days. The sample should be regularly examined by visual inspection and/or polarized light microscope for signs of solid formation.
The antisolvents identified during the initial solubility estimation can be used for adjusting the solubility of the drug substance in the primary solvent. The combination of a solvent with a miscible antisolvent provides a continuous solvent space, which potentially maximizes the possibility of capturing a crystalline form. […]

[2] = model compounds; * = low energy form; cited from earlier work

SMILES | FRA_EV [1] | FRA_TC [1] | Forms Found by FRA [1] | Reported Forms in the Literature [2] | FRA_AS ([1]; forms from antisolvent addition) | forms identified or generated by FRA [1]
NC(=O)N1c2ccccc2C=Cc2ccccc21 [Carbamazepine (E), Carbamazepine] | γ | α, β, γ | α*, β*, γ | α*, β*, γ,; also recorded: dihydrate, solvate | – | –
O=C(O)c1cc(-c2ccc(F)cc2F)ccc1O [Diflunisal] | I, IV,; also recorded: solvate | I, II, III, IV | – | – | – | –
NC(N)=Nc1nc(CSCCC(N)=NS(N)(=O)=O)cs1 [Famotidine] | A, C | A, C | A*, B, C; also recorded: (new form) | A*, B | – | –
COc1ccc2c(c1)c(CC(=O)O)c(C)n2C(=O)c1ccc(Cl)cc1 [Indomethacin] | – | α, β, γ | α, β, γ* | α, β, γ* | – | –
O=C(c1ccccc1)c1ccc2n1CCC2C(=O)O (stereo not shown) [Ketorolac free acid] | – | – | I*, solvate | I*, II, III, solvate | solvate | –
COC(=O)Nc1nc2ccc(C(=O)c3ccccc3)cc2[nH]1 [Mebendazole] | – | A, B, C | A*, B, C | A*, B, C | – | –
CN1C(C(=O)Nc2ccccn2)=C(O)c2ccccc2S1(=O)=O [Piroxicam] | I, II | I, II,; also recorded: hydrate | I*, II, hydrate | I*, II, III, hydrate | – | –
CCCCCCCCCCCCCCCCCC(=O)O [Stearic acid (E), Stearic acid] | – | B, C | B*, C* | A, B*, C*, E | – | both enantiotropic polymorphs
Nc1ccc(S(=O)(=O)Nc2nccs2)cc1 [Sulfathiazole] | – | I, II, III, IV | I, II, III*, IV* | I, II, III*, IV*, V | – | –
CCNC(=O)CCC/C=C\C[C@@H]1[C@@H](/C=C/[C@@H](O)CCc2ccccc2)[C@H](O)C[C@@H]1O [bimatoprost, Bimatoprost] | – | – | – | – | – | capture both forms
